Experimental data published in ChEMBL document CHEMBL4020735, “Design, synthesis, and evaluation of multitarget-directed ligands against Alzheimer's disease based on the fusion of donepezil and curcumin” (Bioorg Med Chem, 2017).
Active and inactive are the calls of the source. The rule behind the calls is not given here.

Columns and labels:
Acetylcholinesterase = Acetylcholinesterase (Electrophorus electricus, UniProt O42275)
Description: Inhibition of electric eel AChE using acetylthiocholine iodide as substrate preincubated for 15 mins followed by substrate addition by spectrophotometric analysis

Cholinesterase = Cholinesterase (Equus caballus, UniProt P81908)
Description: Inhibition of equine serum BuChE using acetylthiocholine iodide as substrate preincubated for 15 mins followed by substrate addition by spectrophotometric analysis

[1] = target: Amyloid-beta precursor protein (Homo sapiens) (UniProt P05067); experiment: Inhibition of self-mediated aggregation of amyloid beta (1 to 42 residues) (unknown origin) at 20 uM after 48 hrs by Thioflavin T fluorescence assay relative to control
[2] = Antioxidant activity assessed as trolox equivalent of APPH-induced radical scavenging activity at 0.117 to 10 uM preincubated for 10 mins followed by AAPH addition measured every minute for 90 mins by ORAC fluorescein assay; type: functional
[3] = Permeability of the compound at […] after 10 hrs by PAMPA; type: physicochemical; details: read-out: permeability
[4] = target: Acetylcholinesterase (Electrophorus electricus) (UniProt O42275); experiment: Mixed type inhibition of electric eel AChE using acetylthiocholine iodide as substrate preincubated for 15 mins followed by substrate addition by Lineweaver-Burk plot analysis
[5] = Metal chelating activity of compound assessed as compound-Cu2+ complex formation at 20 uM after 30 mins by UV-Vis spectrophotometric analysis; type: functional
[6] = Metal chelating activity of compound assessed as compound-Fe2+ complex formation at 20 uM after 30 mins by UV-Vis spectrophotometric analysis; type: functional
[7] = Metal chelating activity of compound assessed as compound-Zn2+ complex formation at 20 uM after 30 mins by UV-Vis spectrophotometric analysis; type: functional

Cholinesterase, sequence (P81908 whole entry, the tested form may be a part): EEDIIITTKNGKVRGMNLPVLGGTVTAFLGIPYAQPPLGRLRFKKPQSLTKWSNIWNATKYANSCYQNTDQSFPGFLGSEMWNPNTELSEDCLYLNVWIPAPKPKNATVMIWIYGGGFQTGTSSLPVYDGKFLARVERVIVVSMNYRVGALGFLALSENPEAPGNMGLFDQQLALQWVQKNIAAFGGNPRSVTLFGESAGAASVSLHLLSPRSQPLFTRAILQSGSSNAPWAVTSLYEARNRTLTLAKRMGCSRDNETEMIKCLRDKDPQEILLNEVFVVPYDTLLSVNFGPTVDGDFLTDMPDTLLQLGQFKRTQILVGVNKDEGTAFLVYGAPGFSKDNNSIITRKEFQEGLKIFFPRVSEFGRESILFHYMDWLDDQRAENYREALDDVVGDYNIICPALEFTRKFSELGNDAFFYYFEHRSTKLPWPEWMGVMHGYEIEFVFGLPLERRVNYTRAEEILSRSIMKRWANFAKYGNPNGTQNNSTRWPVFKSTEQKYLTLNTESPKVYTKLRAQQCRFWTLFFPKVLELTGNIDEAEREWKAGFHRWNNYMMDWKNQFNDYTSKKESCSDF
Acetylcholinesterase, sequence (O42275 whole entry): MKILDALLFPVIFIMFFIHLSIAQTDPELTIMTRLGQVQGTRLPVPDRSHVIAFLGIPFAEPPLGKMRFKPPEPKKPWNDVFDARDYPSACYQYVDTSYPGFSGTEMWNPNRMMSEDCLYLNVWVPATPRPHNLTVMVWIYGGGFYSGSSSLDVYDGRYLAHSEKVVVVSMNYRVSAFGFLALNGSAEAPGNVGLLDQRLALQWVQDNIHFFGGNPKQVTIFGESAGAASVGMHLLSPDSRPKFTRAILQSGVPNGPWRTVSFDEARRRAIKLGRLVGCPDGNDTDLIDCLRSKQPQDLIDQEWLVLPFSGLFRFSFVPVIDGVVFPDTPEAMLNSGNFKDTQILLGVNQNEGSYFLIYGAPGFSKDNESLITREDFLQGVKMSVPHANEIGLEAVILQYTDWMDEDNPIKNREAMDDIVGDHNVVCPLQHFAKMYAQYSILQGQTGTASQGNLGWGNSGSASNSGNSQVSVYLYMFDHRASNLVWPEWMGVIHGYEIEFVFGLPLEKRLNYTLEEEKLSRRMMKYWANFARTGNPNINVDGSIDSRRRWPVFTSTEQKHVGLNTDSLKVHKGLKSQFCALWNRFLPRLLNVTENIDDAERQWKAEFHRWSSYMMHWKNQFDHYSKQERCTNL
Amyloid-beta precursor protein (Homo sapiens), sequence (P05067 whole entry, the tested form may be a part): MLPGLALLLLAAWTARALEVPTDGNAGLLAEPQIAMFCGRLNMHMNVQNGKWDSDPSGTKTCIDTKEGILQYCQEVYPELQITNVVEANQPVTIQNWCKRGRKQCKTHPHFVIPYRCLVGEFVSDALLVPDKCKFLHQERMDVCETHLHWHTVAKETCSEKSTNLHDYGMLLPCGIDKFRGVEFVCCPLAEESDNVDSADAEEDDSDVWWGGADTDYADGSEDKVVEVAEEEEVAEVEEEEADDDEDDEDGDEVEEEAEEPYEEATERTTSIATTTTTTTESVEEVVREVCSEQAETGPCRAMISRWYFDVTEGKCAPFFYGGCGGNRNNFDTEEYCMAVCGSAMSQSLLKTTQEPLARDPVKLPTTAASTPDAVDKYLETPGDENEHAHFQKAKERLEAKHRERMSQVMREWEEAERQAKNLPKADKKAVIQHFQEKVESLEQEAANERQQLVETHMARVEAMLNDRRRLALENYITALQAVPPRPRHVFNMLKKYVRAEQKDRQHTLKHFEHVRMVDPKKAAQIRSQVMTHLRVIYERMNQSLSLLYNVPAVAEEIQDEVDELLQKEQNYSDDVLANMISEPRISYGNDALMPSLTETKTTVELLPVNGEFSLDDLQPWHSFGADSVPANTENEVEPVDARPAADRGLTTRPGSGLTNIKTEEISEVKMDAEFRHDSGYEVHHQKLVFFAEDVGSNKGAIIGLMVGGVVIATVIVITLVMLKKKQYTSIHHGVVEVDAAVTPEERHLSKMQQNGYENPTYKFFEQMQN
Acetylcholinesterase (Electrophorus electricus), sequence (O42275 24-633 limits assumed): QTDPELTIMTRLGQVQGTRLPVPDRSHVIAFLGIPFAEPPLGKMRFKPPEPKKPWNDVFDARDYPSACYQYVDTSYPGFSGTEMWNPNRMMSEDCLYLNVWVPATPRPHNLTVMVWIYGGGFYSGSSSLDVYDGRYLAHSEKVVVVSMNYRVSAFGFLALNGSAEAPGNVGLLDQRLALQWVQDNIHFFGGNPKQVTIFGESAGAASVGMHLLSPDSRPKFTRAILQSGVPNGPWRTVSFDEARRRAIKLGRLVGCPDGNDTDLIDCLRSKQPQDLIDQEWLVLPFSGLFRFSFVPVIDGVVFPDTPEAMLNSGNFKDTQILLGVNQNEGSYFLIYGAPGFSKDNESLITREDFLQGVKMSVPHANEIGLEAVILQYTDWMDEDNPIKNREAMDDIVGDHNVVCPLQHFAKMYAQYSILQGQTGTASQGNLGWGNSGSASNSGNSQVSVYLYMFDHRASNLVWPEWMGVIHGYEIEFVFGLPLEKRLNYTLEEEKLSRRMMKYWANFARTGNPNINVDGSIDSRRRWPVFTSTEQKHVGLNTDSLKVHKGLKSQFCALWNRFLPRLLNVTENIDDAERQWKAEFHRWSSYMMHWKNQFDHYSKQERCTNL

SMILES | IC50 (Acetylcholinesterase) [nM] | IC50 (Cholinesterase) [nM] | further results
COc1ccc(C(=O)C(CCC2CCN(Cc3ccccc3)CC2)C(C)=O)cc1OC (stereo not given) | 373 | 2820 | 
COc1ccc(C(=O)CC(=O)CC2CCN(Cc3cccc(C)c3)CC2)cc1O | 228 | 9780 | inhibition [1]: 30.4%; Activity [2]: 2.49 equiv; Papp at 10 h [3]: 11.3 ×10⁻⁶ cm/s
COc1ccc(C(=O)C(CCC2CCN(Cc3ccccc3)CC2)C(C)=O)cc1 (stereo not given) | 517 | 1640 | 
COCOc1ccc(C(=O)C(CCC2CCN(Cc3cccc(C)c3)CC2)C(C)=O)cc1OC (stereo not given) | 340 | 3090 | 
COc1cc(/C=C/C(=O)CC(=O)/C=C/c2ccc(O)c(OC)c2)ccc1O |  |  | Activity [2]: 2.52 equiv
COc1cc(C(=O)C(CCC2CCN(Cc3cccc(C)c3)CC2)C(C)=O)ccc1O (stereo not given) | 961 | 3360 | 
COc1ccc(C(=O)C(CC2CCN(Cc3ccccc3)CC2)C(C)=O)cc1OC (stereo not given) | 2550 | 20800 | 
COc1ccc(C(=O)C(CCC2CCN(Cc3cccc(C)c3)CC2)C(C)=O)cc1O (stereo not given) | 621 | 16600 | 
COc1ccc(C(=O)CC(=O)CC2CCN(Cc3ccccc3)CC2)cc1O | 187 | 12400 | inhibition [1]: 45.3%; Activity [2]: 3.07 equiv; inhibition [4]: Active; Activity [5]: Active; Activity [6]: Active; Activity [7]: inactive; Papp at 10 h [3]: 11.8 ×10⁻⁶ cm/s
COc1cccc(C(=O)C(CCC2CCN(Cc3cccc(C)c3)CC2)C(C)=O)c1 (stereo not given) | 555 | 1850 | 
COc1cccc(C(=O)C(CC2CCN(Cc3ccccc3)CC2)C(C)=O)c1 (stereo not given) | 1780 | 14400 | 
COc1ccc(C(=O)C(CCC2CCN(Cc3cccc(C)c3)CC2)C(C)=O)cc1OC (stereo not given) | 263 | 2000 | 
COc1ccc(C(=O)CC(=O)CC2CCN(Cc3ccccc3)CC2)cc1OC | 149 | 2330 | inhibition [1]: 22%; Activity [2]: 1.1 equiv; Papp at 10 h [3]: 12.1 ×10⁻⁶ cm/s
COc1cc(C(=O)C(CCC2CCN(Cc3ccccc3)CC2)C(C)=O)ccc1O (stereo not given) | 2050 | 15600 | 
